Reference: publication PMC8811472, “Systematic In Vitro Evaluation of a Library of Approved and Pharmacologically Active Compounds for the Identification of Novel Candidate Drugs for KMT2A-Rearranged Leukemia” (Frontiers in Oncology, 2022)

Tests used:
[1] = system: THP-1 and REH versus 2-Cl-ATP-sensitive KMT2A-r cells; test: Resazurin-based viability assays of nucleoside analogs in leukemia cell line panel; set-up: species or system human
Method: (§1) The cytotoxicity of drugs was assessed through resazurin-based assays and the inhibitory concentration resulting in 50% reduction of cell survival relative to control (IC50) was calculated as previously described ([7]). In synergy studies, cells were exposed to a dilution series of compounds, as single agents or in combination, in resazurin-based assays (72 hours) as described ([8]–[10]). The occurrence of synergy was determined with the Bliss Independence model as previously described ([8]–[10]). Bliss Prediction curves indicated the predicted percentage viability of the cells when exposed to the combination of compounds if both compounds work additively together. Synergy was visualised as the presence of a lower cell viability upon combination of two compounds compared to the viability predicted based on the presence of an additive effect of the compounds (i.e., the viability curve of the combination runs below the Bliss Prediction curve). The percentage of apoptotic cells was assessed by annexin V and 7-Aminoactinomycin D (7-AAD) (BD Biosciences, Australia) flow cytometry as previously described ([7]).

LNCaP cells = test: 72-hour resazurin-based cytotoxicity assay, LNCaP; format: cell-based, human; conditions: Homo sapiens, prostate carcinoma
Method: (§2) All cell lines used in this study were mycoplasma-free and have been authenticated using STR profiling. Cells were cultured as previously described ([7], [8]). Characteristics of the leukemia cell lines used in this study are described in Supplementary Table 1 . Peripheral blood mononuclear cells from healthy donors were purchased from Australian Red Cross.
as §1, with “The percentage of apoptotic cells was assessed by annexin V and 7-Aminoactinomycin D (7-AAD) (BD Biosciences, Australia) flow cytometry as previously described ([7]).” left out

MV4;11 cells = test: 72-hour resazurin-based cytotoxicity assay, MV4;11; format: cell-based, human; conditions: Homo sapiens, MV4;11, KMT2A-r t(4;11), childhood AML
Method: as §2
as §1, with “The percentage of apoptotic cells was assessed by annexin V and 7-Aminoactinomycin D (7-AAD) (BD Biosciences, Australia) flow cytometry as previously described ([7]).” left out

[2] = system: peripheral blood mononuclear cells from healthy donors; test: 72-hour resazurin-based viability assay, PBMC from healthy donors; format: cell-based, human; conditions: Homo sapiens, PBMC, 72 h, 72 h resazurin
Method: as §2, §1

WI-38 cells = test: 72-hour resazurin-based cytotoxicity assay, WI-38; format: cell-based, human; conditions: Homo sapiens, WI-38, non-malignant, normal lung
Method: as §2
as §1, with “The percentage of apoptotic cells was assessed by annexin V and 7-Aminoactinomycin D (7-AAD) (BD Biosciences, Australia) flow cytometry as previously described ([7]).” left out

KOPN-8 cells = test: 72-hour resazurin-based cytotoxicity assay, KOPN-8; set-up: species or system human; conditions: Homo sapiens, KOPN-8, KMT2A-r t(11;19), infant pre-B cell ALL
Method: as §2
as §1, with “The percentage of apoptotic cells was assessed by annexin V and 7-Aminoactinomycin D (7-AAD) (BD Biosciences, Australia) flow cytometry as previously described ([7]).” left out

MRC-5 cells = test: 72-hour resazurin-based cytotoxicity assay, MRC-5; format: cell-based, human; conditions: Homo sapiens, MRC5, MRC-5, non-malignant, normal lung
Method: as §2, §1

BE(2)C cells = test: 72-hour resazurin-based cytotoxicity assay, BE(2)C; format: cell-based, human; conditions: Homo sapiens, childhood neuroblastoma
Method: as §2
as §1, with “The percentage of apoptotic cells was assessed by annexin V and 7-Aminoactinomycin D (7-AAD) (BD Biosciences, Australia) flow cytometry as previously described ([7]).” left out

MCF-7 cells = test: 72-hour resazurin-based cytotoxicity assay, MCF-7; format: cell-based, human; conditions: Homo sapiens, MCF7, MCF-7, breast adenocarcinoma
Method: as §2
as §1, with “The percentage of apoptotic cells was assessed by annexin V and 7-Aminoactinomycin D (7-AAD) (BD Biosciences, Australia) flow cytometry as previously described ([7]).” left out

27/87 cells = test: 72-hour resazurin-based cytotoxicity assay, 27/87; format: cell-based, human; conditions: Homo sapiens, 27/87, endometrioid ovarian cancer
Method: as §2
as §1, with “The percentage of apoptotic cells was assessed by annexin V and 7-Aminoactinomycin D (7-AAD) (BD Biosciences, Australia) flow cytometry as previously described ([7]).” left out

PER-485 cells [3] = test: Annexin V/7-AAD flow cytometry, PER-485; format: cell-based, human; conditions: KMT2A-r leukemia cells (PER-485)
Method: as §1

KP-MO-TS cells = test: 72-hour resazurin-based cytotoxicity assay, KP-MO-TS; format: cell-based, human; conditions: Homo sapiens, CALM-AF10, AML
Method: as §2
as §1, with “The percentage of apoptotic cells was assessed by annexin V and 7-Aminoactinomycin D (7-AAD) (BD Biosciences, Australia) flow cytometry as previously described ([7]).” left out

MOLM-13 cells = test: 72-hour resazurin-based cytotoxicity assay, MOLM-13; format: cell-based, human; conditions: Homo sapiens, MOLM-13, KMT2A-r t(9;11), AML
Method: as §2, §1

RS4;11 cells = test: 72-hour resazurin-based cytotoxicity assay, RS4;11; set-up: species or system human; conditions: RS4;11, KMT2A-r t(4;11), pre-B cell ALL
Method: as §2, §1

Jurkat cells = test: 72-hour resazurin-based cytotoxicity assay, Jurkat; set-up: species or system human; conditions: Homo sapiens, KMT2A-wt, childhood T-cell ALL
Method: as §2, §1

THP-1 cells = test: 72-hour resazurin-based cytotoxicity assay, THP-1; format: cell-based, human; conditions: Homo sapiens, THP-1, KMT2A-r t(9;11), infant AML
Method: as §2, §1

KELLY cells = test: 72-hour resazurin-based cytotoxicity assay, KELLY; format: cell-based, human; conditions: Homo sapiens, neuroblastoma
Method: as §2
as §1, with “The percentage of apoptotic cells was assessed by annexin V and 7-Aminoactinomycin D (7-AAD) (BD Biosciences, Australia) flow cytometry as previously described ([7]).” left out

PER-703 cells = test: 72-hour resazurin-based cytotoxicity assay, PER-703; format: cell-based, human; conditions: Homo sapiens, PER-703, KMT2A-r t(1;11), infant ALL derived
Method: as §2
as §1, with “The percentage of apoptotic cells was assessed by annexin V and 7-Aminoactinomycin D (7-AAD) (BD Biosciences, Australia) flow cytometry as previously described ([7]).” left out

PER-485 cells [4] = test: 72-hour resazurin-based cytotoxicity assay, PER-485; format: cell-based, human; conditions: Homo sapiens, PER-485, KMT2A-r t(4;11), infant ALL derived
Method: as §2, §1

PER-490 cells = test: 72-hour resazurin-based cytotoxicity assay, PER-490; format: cell-based, human; conditions: Homo sapiens, PER-490, KMT2A-r t(4;11), infant ALL
Method: as §2
as §1, with “The percentage of apoptotic cells was assessed by annexin V and 7-Aminoactinomycin D (7-AAD) (BD Biosciences, Australia) flow cytometry as previously described ([7]).” left out

CEM cells = test: 72-hour resazurin-based cytotoxicity assay, CEM; set-up: species or system human; conditions: Homo sapiens, CCRF-CEM, KMT2A-wt, childhood T-cell ALL
Method: as §2, §1

HEY cells = test: 72-hour resazurin-based cytotoxicity assay, HEY; format: cell-based, human; conditions: Homo sapiens, ovarian carcinoma
Method: as §2
as §1, with “The percentage of apoptotic cells was assessed by annexin V and 7-Aminoactinomycin D (7-AAD) (BD Biosciences, Australia) flow cytometry as previously described ([7]).” left out

[5] = system: KMT2A-r and CALM-AF10 translocated leukemia cell lines; test: Cytotoxicity in expanded cell line panel (range over sensitive lines); format: cell-based; conditions: Homo sapiens; 9 out of 11 KMT2A-r leukemia cell lines
Method: as §2
as §1, with “The percentage of apoptotic cells was assessed by annexin V and 7-Aminoactinomycin D (7-AAD) (BD Biosciences, Australia) flow cytometry as previously described ([7]).” left out

SEMK2 cells = test: 72-hour resazurin-based cytotoxicity assay, SEMK2; set-up: species or system human; conditions: Homo sapiens, SEMK2, KMT2A-r t(4;11), pre-B cell childhood ALL
Method: as §2, §1

PER-785 cells = test: 72-hour resazurin-based cytotoxicity assay, PER-785; format: cell-based, human; conditions: Homo sapiens, PER-785, KMT2A-r t(4;11), infant ALL
Method: as §2
as §1, with “The percentage of apoptotic cells was assessed by annexin V and 7-Aminoactinomycin D (7-AAD) (BD Biosciences, Australia) flow cytometry as previously described ([7]).” left out

H460 cells = test: 72-hour resazurin-based cytotoxicity assay, H460; format: cell-based, human; conditions: Homo sapiens, NCI-H460, H460, lung carcinoma
Method: as §2
as §1, with “The percentage of apoptotic cells was assessed by annexin V and 7-Aminoactinomycin D (7-AAD) (BD Biosciences, Australia) flow cytometry as previously described ([7]).” left out

PER-826 cells = test: 72-hour resazurin-based cytotoxicity assay, PER-826; format: cell-based, human; conditions: Homo sapiens, PER-826, KMT2A-r complex t(11;19), infant ALL
Method: as §2
as §1, with “The percentage of apoptotic cells was assessed by annexin V and 7-Aminoactinomycin D (7-AAD) (BD Biosciences, Australia) flow cytometry as previously described ([7]).” left out

REH cells = test: 72-hour resazurin-based cytotoxicity assay, REH; set-up: species or system human; conditions: Homo sapiens, KMT2A-wt, pre-B cell ALL
Method: as §2, §1

U937 cells = test: 72-hour resazurin-based cytotoxicity assay, U937; format: cell-based, human; conditions: Homo sapiens, U-937, U937, CALM-AF10, AML
Method: as §2
as §1, with “The percentage of apoptotic cells was assessed by annexin V and 7-Aminoactinomycin D (7-AAD) (BD Biosciences, Australia) flow cytometry as previously described ([7]).” left out

[6] = system: KMT2A-r PER-485 and KMT2A-wt REH cells; test: 72-hour resazurin-based viability assay, PER-485 versus REH; format: cell-based, human
Method: as §1

In the case of `Nc1nc(Cl)nc2c1ncn2[C@@H]1O[C@H](CO)[C@@H](O)[C@H]1O` [2-CADO, 2-chloroadenosine], the “response of 2-Cl-ATP-resistant cell lines THP-1 and REH compared with 2-Cl-ATP-sensitive KMT2A-r cells” value [1] is reported as “less responsive”.
`Nc1nc(Cl)nc2c1ncn2[C@@H]1O[C@H](COP(=O)(O)OP(=O)(O)OP(=O)(O)O)[C@@H](O)[C@H]1O` [2-Cl-ATP, 2-chloroadenosine triphosphate] showed an IC50 (LNCaP cells) of 14.9 µM, an IC50 (MV4;11 cells) of 2700 nM and an IC50 ([2]; Donor 1) of 5.4 µM. The IC50 ([2]; Donor 2) was 4.8 µM, the IC50 ([2]; Donor 3) was 4.2 µM and the IC50 (WI-38 cells) was greater than 20 µM. For the same compound, the IC50 (KOPN-8 cells) was 13.4 µM, the IC50 (MRC-5 cells) was greater than 20 µM and the IC50 (BE(2)C cells) was greater than 20 µM. The IC50 (MCF-7 cells) was greater than 20 µM, the IC50 (27/87 cells) was greater than 20 µM and the “induction of apoptosis (annexin V/7AAD)” value (PER-485 cells [3]) was “inducing apoptosis”. The IC50 (KP-MO-TS cells) was 4.4 µM, the IC50 (MOLM-13 cells) was 5.6 µM and the IC50 (RS4;11 cells; Homo sapiens, RS4-11, 72 h) was 5.8 µM. It also gave an IC50 (RS4;11 cells) of 5.9 µM, an IC50 (Jurkat cells) greater than 20 µM and an IC50 (THP-1 cells) greater than 20 µM. The IC50 (KELLY cells) was greater than 20 µM, the IC50 (PER-703 cells) was 4.3 µM and the IC50 (PER-485 cells [4]) was 2500 nM. The IC50 (PER-490 cells) was 4.5 µM, the IC50 (CEM cells) was 11.4 µM and the IC50 (HEY cells) was greater than 20 µM. For the same compound, the IC50 [5] was 2.5 to 5.9 µM, the IC50 (SEMK2 cells) was 5.1 µM and the IC50 (PER-785 cells) was 3.5 µM. The IC50 (H460 cells) was greater than 20 µM, the IC50 (PER-826 cells) was 2600 nM and the IC50 (REH cells) was greater than 20 µM. For the same compound, the IC50 (U937 cells) was 3.5 µM.
`CCCCCCCOc1ccc(O)cc1` [AC-45594] was tested, and the “selective cytotoxicity towards KMT2A-r leukemia cells” value [6] was “did not display selective cytotoxicity”.
